Measured values: ChEMBL document CHEMBL1139092, “Challenges in the development of mGluR5 positive allosteric modulators: the discovery of CPPHA” (Bioorg Med Chem Lett, 2007)

Legend:
Format in all cases: cell-based
[1] = target: T1, Metabotropic glutamate receptor 5 (Homo sapiens, UniProt P41594); test: Activity at human mGluR5 expressed in CHO cells assessed as potentiation of glutamate response by FLIPR assay relative to glutamate
Target sequence in this assay (P41594 21-1212 limits assumed): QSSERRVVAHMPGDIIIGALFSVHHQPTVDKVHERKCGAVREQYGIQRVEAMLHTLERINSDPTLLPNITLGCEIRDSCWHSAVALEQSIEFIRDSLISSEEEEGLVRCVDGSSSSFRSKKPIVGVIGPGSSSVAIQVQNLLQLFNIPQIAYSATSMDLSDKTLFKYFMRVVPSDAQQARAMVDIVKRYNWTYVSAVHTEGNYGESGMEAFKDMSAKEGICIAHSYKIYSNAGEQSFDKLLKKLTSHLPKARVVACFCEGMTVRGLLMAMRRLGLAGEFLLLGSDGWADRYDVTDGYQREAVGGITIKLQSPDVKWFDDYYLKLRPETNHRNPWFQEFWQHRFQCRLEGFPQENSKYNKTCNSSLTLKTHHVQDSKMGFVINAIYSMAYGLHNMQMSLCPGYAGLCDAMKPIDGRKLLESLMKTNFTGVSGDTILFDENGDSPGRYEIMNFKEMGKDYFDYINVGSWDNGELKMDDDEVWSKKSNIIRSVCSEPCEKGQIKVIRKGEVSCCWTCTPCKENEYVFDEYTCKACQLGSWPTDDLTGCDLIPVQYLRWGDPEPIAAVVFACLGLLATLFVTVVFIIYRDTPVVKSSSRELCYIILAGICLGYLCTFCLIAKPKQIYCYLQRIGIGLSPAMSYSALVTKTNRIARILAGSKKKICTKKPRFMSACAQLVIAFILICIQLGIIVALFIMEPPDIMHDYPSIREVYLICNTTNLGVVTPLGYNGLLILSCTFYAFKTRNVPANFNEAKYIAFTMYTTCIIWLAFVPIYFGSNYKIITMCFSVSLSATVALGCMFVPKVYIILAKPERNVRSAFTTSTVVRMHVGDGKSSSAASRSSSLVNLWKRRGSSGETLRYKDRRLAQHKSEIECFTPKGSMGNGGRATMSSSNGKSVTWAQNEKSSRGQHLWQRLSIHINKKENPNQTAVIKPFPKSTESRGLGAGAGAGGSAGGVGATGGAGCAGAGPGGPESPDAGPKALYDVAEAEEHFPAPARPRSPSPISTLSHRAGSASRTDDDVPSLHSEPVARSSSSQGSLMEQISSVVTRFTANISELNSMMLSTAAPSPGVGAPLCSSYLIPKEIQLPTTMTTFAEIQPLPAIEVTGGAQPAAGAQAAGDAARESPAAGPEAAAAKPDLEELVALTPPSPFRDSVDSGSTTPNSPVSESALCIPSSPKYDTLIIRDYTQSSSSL

[2] = target: T1, Metabotropic glutamate receptor 5; test: Activity at human mGluR5 expressed in CHO cells assessed as potentiation of glutamate response by FLIPR assay
Target sequence in this assay (P41594 whole entry): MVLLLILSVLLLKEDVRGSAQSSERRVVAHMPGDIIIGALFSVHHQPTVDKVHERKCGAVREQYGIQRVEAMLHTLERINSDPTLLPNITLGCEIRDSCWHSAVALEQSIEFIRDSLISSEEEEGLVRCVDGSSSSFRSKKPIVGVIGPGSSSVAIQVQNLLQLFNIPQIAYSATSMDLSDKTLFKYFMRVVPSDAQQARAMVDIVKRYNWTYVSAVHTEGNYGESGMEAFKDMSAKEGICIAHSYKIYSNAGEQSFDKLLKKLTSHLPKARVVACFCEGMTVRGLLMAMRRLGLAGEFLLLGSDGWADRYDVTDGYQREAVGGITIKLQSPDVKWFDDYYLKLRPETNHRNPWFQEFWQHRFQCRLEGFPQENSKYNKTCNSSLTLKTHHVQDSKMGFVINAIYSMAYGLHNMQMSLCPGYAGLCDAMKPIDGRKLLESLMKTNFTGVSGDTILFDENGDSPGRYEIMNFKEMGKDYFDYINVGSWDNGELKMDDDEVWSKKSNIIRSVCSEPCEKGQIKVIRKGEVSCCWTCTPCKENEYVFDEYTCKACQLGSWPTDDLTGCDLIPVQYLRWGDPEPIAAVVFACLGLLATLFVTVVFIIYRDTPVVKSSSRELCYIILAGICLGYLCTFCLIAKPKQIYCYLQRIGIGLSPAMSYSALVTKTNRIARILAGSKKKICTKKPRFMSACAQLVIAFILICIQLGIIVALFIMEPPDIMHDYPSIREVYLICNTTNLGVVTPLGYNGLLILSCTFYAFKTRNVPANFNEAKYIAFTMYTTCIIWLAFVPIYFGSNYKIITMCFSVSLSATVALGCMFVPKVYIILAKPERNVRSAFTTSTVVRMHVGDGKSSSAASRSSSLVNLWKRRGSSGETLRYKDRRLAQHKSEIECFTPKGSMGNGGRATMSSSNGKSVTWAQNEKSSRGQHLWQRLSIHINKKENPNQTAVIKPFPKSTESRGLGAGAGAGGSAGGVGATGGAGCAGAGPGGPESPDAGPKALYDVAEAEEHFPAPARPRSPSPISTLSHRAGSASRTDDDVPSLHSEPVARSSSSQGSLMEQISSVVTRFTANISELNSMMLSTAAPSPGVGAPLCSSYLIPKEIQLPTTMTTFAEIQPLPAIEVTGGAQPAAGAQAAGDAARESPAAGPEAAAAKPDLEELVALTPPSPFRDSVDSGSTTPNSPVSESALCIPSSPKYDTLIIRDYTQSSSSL

[3] = target: Metabotropic glutamate receptor 5 (Rattus norvegicus, UniProt P31424); test: Activity at rat mGluR5 expressed in CHO cells assessed as potentiation of glutamate response by FLIPR assay
Chain of Metabotropic glutamate receptor 5 (Rattus norvegicus, UniProt P31424) (P31424 whole entry): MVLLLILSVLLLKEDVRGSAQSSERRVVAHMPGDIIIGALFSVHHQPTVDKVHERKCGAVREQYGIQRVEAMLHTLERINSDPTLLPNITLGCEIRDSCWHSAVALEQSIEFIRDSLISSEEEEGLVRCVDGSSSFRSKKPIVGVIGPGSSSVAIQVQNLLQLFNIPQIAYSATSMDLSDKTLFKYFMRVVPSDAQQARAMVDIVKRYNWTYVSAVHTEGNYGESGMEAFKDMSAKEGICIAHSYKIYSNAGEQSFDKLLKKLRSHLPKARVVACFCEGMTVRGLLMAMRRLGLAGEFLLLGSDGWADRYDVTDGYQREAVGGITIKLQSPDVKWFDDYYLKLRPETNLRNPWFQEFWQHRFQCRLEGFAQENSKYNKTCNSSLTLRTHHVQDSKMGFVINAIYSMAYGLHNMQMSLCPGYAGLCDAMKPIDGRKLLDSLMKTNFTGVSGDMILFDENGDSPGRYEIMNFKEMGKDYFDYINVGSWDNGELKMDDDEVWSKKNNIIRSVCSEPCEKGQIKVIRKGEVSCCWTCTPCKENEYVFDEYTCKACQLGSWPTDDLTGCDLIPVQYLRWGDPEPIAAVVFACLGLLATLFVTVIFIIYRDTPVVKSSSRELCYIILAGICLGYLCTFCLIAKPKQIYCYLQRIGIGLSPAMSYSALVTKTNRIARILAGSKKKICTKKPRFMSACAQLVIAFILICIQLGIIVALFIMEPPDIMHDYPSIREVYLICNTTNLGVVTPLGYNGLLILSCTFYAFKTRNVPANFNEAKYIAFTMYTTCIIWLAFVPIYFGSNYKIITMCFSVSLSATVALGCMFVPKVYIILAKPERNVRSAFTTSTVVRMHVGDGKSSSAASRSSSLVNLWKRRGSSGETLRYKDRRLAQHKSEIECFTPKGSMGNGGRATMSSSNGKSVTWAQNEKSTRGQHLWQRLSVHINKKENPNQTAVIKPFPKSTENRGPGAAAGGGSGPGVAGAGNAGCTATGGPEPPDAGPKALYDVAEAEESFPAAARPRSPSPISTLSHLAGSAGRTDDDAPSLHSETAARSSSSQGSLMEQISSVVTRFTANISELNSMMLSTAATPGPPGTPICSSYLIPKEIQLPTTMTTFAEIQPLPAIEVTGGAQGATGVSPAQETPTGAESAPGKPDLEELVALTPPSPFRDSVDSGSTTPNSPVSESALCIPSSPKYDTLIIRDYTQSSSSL

COc1ccc(NC(=O)c2ccccn2)c(CN2C(=O)c3ccccc3C2=O)c1
Activity [1]: 3.5 | EC50 [2]: 1400 nM

O=C(Nc1ccc(Cl)cc1CN1C(=O)c2ccccc2C1=O)c1ccccn1 [listing 1 of 3 here]
EC50 ([2]; cho): 250 nM

COc1ccc2c(c1OC)C(=O)N(Cc1cc(Cl)ccc1NC(=O)c1ccccn1)C2=O
Activity [1]: 0.6 | EC50 [2]: > 100000 nM

O=C(Nc1ccc(Cl)cc1CN1C(=O)c2ccccc2C1=O)c1ccccc1C(F)(F)F
Activity [1]: 3.5 | EC50 [3]: > 1000 nM | EC50 [2]: 5700 nM

O=C(Nc1cccc(F)c1CN1C(=O)c2ccccc2C1=O)c1ccccn1
Activity [1]: 0.9 | EC50 [2]: > 100000 nM

COc1ccc2c(c1OC)C(=O)N(Cc1cc(Br)ccc1NC(=O)c1ccccn1)C2=O
Activity [1]: 0.6 | EC50 [2]: > 100000 nM

O=C(Nc1ccc(Cl)cc1CN1C(=O)c2ccccc2C1=O)c1ccccc1O
Activity [1]: 7.1

O=C(Nc1ccccc1CN1C(=O)c2ccccc2C1=O)c1ccccn1
Activity [1]: 3.4 | EC50 [2]: 13900 nM

O=C(Nc1ccc(Cl)cc1CN1C(=O)c2ccccc2C1=O)c1ccccn1 [listing 2 of 3 here]
Activity [1]: 6.8

COc1cccc(C(=O)Nc2ccc(Cl)cc2CN2C(=O)c3ccccc3C2=O)c1
Activity [1]: 1.6 | EC50 [3]: > 1000 nM | EC50 [2]: 1500 nM

O=C(Nc1ccc(Cl)cc1CN1C(=O)c2ccccc2C1=O)c1ncccn1
Activity [1]: 1.3 | EC50 [3]: > 1000 nM | EC50 [2]: 2100 nM

O=C(Nc1ccc(Cl)cc1CN1C(=O)c2ccccc2C1=O)c1ncccc1O
Activity [1]: 11.3 | EC50 [3]: > 1000 nM | EC50 [2]: 260 nM

COc1ccccc1C(=O)Nc1ccc(Cl)cc1CN1C(=O)c2ccccc2C1=O
Activity [1]: 0.6 | EC50 [3]: > 1000 nM | EC50 [2]: > 100000 nM

O=C(Nc1ccc(Cl)cc1CN1C(=O)c2ccccc2C1=O)c1ccccc1[N+](=O)[O-]
Activity [1]: 2.9 | EC50 [3]: > 1000 nM | EC50 [2]: 5700 nM

O=C(Nc1ccc(Br)cc1CN1C(=O)c2ccccc2C1=O)c1ccccn1
Activity [1]: 7.6 | EC50 [3]: > 1000 nM | EC50 [2]: 750 nM

O=C(Nc1ccc(Cl)cc1CN1C(=O)c2ccccc2C1=O)c1ccccn1 [listing 3 of 3 here]
EC50 [2]: 250 nM

O=C(Nc1ccc(Br)cc1CN1C(=O)c2ccc(F)cc2C1=O)c1ccccn1
Activity [1]: 11.1 | EC50 [2]: 930 nM

O=C(Nc1ccc(Cl)cc1CN1C(=O)c2ccccc2C1=O)c1cccnn1
Activity [1]: 0.6 | EC50 [3]: > 1000 nM | EC50 [2]: > 100000 nM

O=C(Nc1ccc(Cl)cc1CN1C(=O)c2ccccc2C1=O)c1cccnc1
Activity [1]: 1.8 | EC50 [3]: > 1000 nM | EC50 [2]: 35000 nM

O=C(CCc1cc(Cl)ccc1NC(=O)c1ccccn1)c1ccccc1
EC50 [2]: 4500 nM

O=C(Nc1ccc(F)cc1CN1C(=O)c2ccccc2C1=O)c1ccccn1
Activity [1]: 2.6 | EC50 [2]: 1500 nM

O=C(Nc1ccc(Cl)cc1CN1C(=O)c2ccccc2C1=O)c1cncs1
Activity [1]: 9.2 | EC50 [3]: > 1000 nM | EC50 [2]: 1900 nM

Cc1ccc2c(c1C)C(=O)N(Cc1cc(Br)ccc1NC(=O)c1ccccn1)C2=O
Activity [1]: 0.6 | EC50 [2]: > 100000 nM

O=C(Nc1ccc(Cl)cc1CN1C(=O)c2ccccc2C1=O)c1ccccc1
Activity [1]: 0.6 | EC50 [3]: > 1000 nM | EC50 [2]: > 100000 nM

O=C(Nc1ccc(Cl)cc1CN1C(=O)c2ccccc2C1=O)c1ccco1
Activity [1]: 6.2 | EC50 [3]: > 1000 nM | EC50 [2]: 2300 nM

CCOc1cccc2c1C(=O)N(Cc1cc(Br)ccc1NC(=O)c1ccccn1)C2=O
Activity [1]: 10.7 | EC50 [2]: 720 nM

O=C(Nc1ccc(Cl)cc1CN1C(=O)c2ccc(F)cc2C1=O)c1ccccn1
Activity [1]: 4.6 | EC50 [2]: 330 nM

CCN(Cc1cc(Cl)ccc1NC(=O)c1ccccn1)C(=O)c1cc(Cl)cc(Cl)c1
Activity [1]: 5.9 | EC50 [2]: 470 nM

CCOc1cccc2c1C(=O)N(Cc1cc(Cl)ccc1NC(=O)c1ccccn1)C2=O
Activity [1]: 4.5 | EC50 [2]: 280 nM

O=C(/C=C/c1cc(Cl)ccc1NC(=O)c1ccccn1)c1ccccc1
Activity [1]: 8 | EC50 [2]: 1700 nM

O=C(Nc1ccc(Cl)cc1CN1C(=O)c2ccccc2C1=O)C1CCCCC1
Activity [1]: 4.1 | EC50 [3]: > 1000 nM | EC50 [2]: 1500 nM

Cc1ccc2c(c1C)C(=O)N(Cc1cc(Cl)ccc1NC(=O)c1ccccn1)C2=O
Activity [1]: 3.7 | EC50 [2]: 2200 nM
